Results taken from publication PMC8134461, “A physicochemical assessment of the thermal stability of dextrin–colistin conjugates” (Scientific Reports, 2021).
Structures can show the parent of a compound that is named as a salt. Positions of bridges follow the written chain, without caps; N, C: chain ends. Non-standard residues stand in square brackets, D forms with d. Residues, ends and D or L forms follow the SMILES beside them. *: point of attachment. X1 = CC[C@H](C)CCCCC(=O)*; Dab = NCC[C@H](N)C(=O)O

How the values were obtained:
[1] = test system: V5 Escherichia coli AIM-1; test: MIC assay (broth microdilution) after storage; format: cell-based; conditions: 16–20 h, mode (n = 3), equivalent colistin concentration for conjugates; for MIC, Initial: before storage, 3 mg/mL in PBS, broth microdilution in MH broth; for MIC, storage temperature 4 °C: stored in PBS at 4 °C for 12 months; for MIC, storage temperature 4 °C / MIC, storage temperature 21 °C / MIC, storage temperature 37 °C / MIC, storage temperature -20 °C / MIC, repeat freeze–thaw: broth microdilution, MH broth; for MIC, storage temperature 21 °C: stored in PBS at 21 °C for 12 months; for MIC, storage temperature 37 °C: stored in PBS at 37 °C for 12 months; for MIC, storage temperature -20 °C: stored in PBS at -20 °C for 12 months; for MIC, repeat freeze–thaw: weekly freeze-thawing for 5 weeks (-20 °C, defrosted 1 h at 20–22 °C)
Method: (§1) The clinical isolates (V5 Escherichia coli AIM-1, V6 Klebsiella pneumoniae IR25 and V19 Acinetobacter baumannii 7789) and susceptibility testing method have been previously described by Khan et al.[33] Bacterial colonies were grown on blood agar supplemented with 5% v/v defibrinated horse blood. Overnight cultures were prepared in tryptone soy broth (TSB) and Mueller–Hinton broth (MHB) was used for MIC determination (LabM; Bury, UK).
(§2) Three primary batches of colistin sulfate, CMS and dextrin-colistin conjugates were dissolved in PBS at 3 mg/mL and stored at − 20, 4, 21 and 37 °C for 0, 1, 3, 6, 9 and 12 months. In addition, to test the effect of repeated freeze–thaw on stability, a separate set of solutions were stored at − 20 °C and defrosted for 1 h at 20–22 °C weekly for 5 cycles. Samples were analyzed using FPLC (free drug) and GPC (saccharide release) and antimicrobial activity, UV/vis absorbance and protein content (bicinchoninic acid (BCA) assay) of the samples stored for 12 months was assessed.
(§3) The minimum inhibitory concentration (MIC) of colistin sulphate, CMS and dextrin-colistin conjugates was determined using the broth microdilution method in MH broth in accordance with standard guidelines. Test organisms were suspended in MH broth (100 µL, 5 × 10^5 colony forming units (CFU)/mL) and incubated in 96-well microtitre plates in serial two-fold dilutions of the test compounds. The MIC was defined as the lowest concentration of test compound that produced no visible growth after 16–20 h. Results were expressed as mode (n = 3).

[2] = test system: V19 Acinetobacter baumannii 7789; format: cell-based; conditions: 16–20 h, mode (n = 3), equivalent colistin concentration for conjugates; for MIC, Initial: before storage, 3 mg/mL in PBS, broth microdilution in MH broth; for MIC, storage temperature 4 °C: stored in PBS at 4 °C for 12 months; for MIC, storage temperature 4 °C / MIC, storage temperature 21 °C / MIC, storage temperature 37 °C / MIC, storage temperature -20 °C / MIC, repeat freeze–thaw: broth microdilution, MH broth; for MIC, storage temperature 21 °C: stored in PBS at 21 °C for 12 months; for MIC, storage temperature 37 °C: stored in PBS at 37 °C for 12 months; for MIC, storage temperature -20 °C: stored in PBS at -20 °C for 12 months; for MIC, repeat freeze–thaw: weekly freeze-thawing for 5 weeks (-20 °C, defrosted 1 h at 20–22 °C)
Method: as §1, §2, §3

[3] = test system: V6 Klebsiella pneumoniae IR25; format: cell-based; conditions: 16–20 h, mode (n = 3), equivalent colistin concentration for conjugates; for MIC, Initial: before storage, 3 mg/mL in PBS, broth microdilution in MH broth; for MIC, storage temperature 4 °C: stored in PBS at 4 °C for 12 months; for MIC, storage temperature 4 °C / MIC, storage temperature 21 °C / MIC, storage temperature 37 °C / MIC, storage temperature -20 °C / MIC, repeat freeze–thaw: broth microdilution, MH broth; for MIC, storage temperature 21 °C: stored in PBS at 21 °C for 12 months; for MIC, storage temperature 37 °C: stored in PBS at 37 °C for 12 months; for MIC, storage temperature -20 °C: stored in PBS at -20 °C for 12 months; for MIC, repeat freeze–thaw: weekly freeze-thawing for 5 weeks (-20 °C, defrosted 1 h at 20–22 °C)
Method: as §1, §2, §3

[4] = Stability during storage in PBS: saccharide release and elution profile by GPC; format: physicochemical; conditions: 3 mg/mL in PBS, up to 12 months; Ultrahydrogel 120, RI; CMS: after storage above -20 °C
Method: as §2
GPC was performed using an Ultrahydrogel guard column and two Ultrahydrogel 120 columns (7.8 mm × 300 mm) from Waters (Elstree, UK) in series, connected to a Jasco PU-1580 HPLC pump with PBS buffer eluent and a flow rate of 1 mL/min. Samples (300 μL) were injected into a 100 μL loop and the eluate was monitored using a Jasco MD-2010 multi-wavelength UV detector (210 and 280 nm) and a Gilson 153 differential refractometer (Middleton, WI, USA) connected to a Polymer Laboratories PL DataStream (Church Stretton, UK). Dual detection enabled distinction of dextrin and saccharide components that are not bound to colistin. Cirrus GPC software (version 3.2, 2006) from Polymer Laboratories (Church Stretton, UK) was used for data analysis. Glucose and maltose oligomers (DP 2, 3, 6 and 7) were employed for calibration. […]

[5] = test system: V5 Escherichia coli AIM-1, V6 Klebsiella pneumoniae IR25 and V19 Acinetobacter baumannii 7789; test: Antimicrobial activity after storage, MIC assay, statement over all test strains; format: cell-based; conditions: repeated freeze–thaw or storage in solution for up to 12 months at -20, 4 or 21 °C
Method: as §1, §2
The minimum inhibitory concentration (MIC) of colistin sulphate, CMS and dextrin-colistin conjugates was determined using the broth microdilution method in MH broth in accordance with standard guidelines. […] Results were expressed as mode (n = 3).

Compound: CC[C@H](C)CCCCC(=O)N[C@@H](CCN)C(=O)N[C@H](C(=O)N[C@@H](CCN)C(=O)N[C@H]1CCNC(=O)[C@H]([C@@H](C)O)NC(=O)[C@H](CCN)NC(=O)[C@H](CCN)NC(=O)[C@H](CC(C)C)NC(=O)[C@@H](CC(C)C)NC(=O)[C@H](CCN)NC1=O)[C@@H](C)O [Colistin sulfate, colistin sulfate] (X1-[Dab]T[Dab][Dab][Dab][dL]L[Dab][Dab]T; lactam 4-C (inferred); N-terminus assumed)
- MIC, Initial [1]: 0.004 µg/mL
- MIC, storage temperature 4 °C [1]: 0.002 µg/mL
- MIC, storage temperature 21 °C [1]: 0.016 µg/mL
- MIC, storage temperature 37 °C [1]: 0.25 µg/mL
- MIC, storage temperature -20 °C [1]: 0.002 µg/mL
- MIC, repeat freeze–thaw [1]: 0.004 µg/mL
- MIC, Initial [2]: 0.063 µg/mL
- MIC, storage temperature 4 °C [2]: 0.031 µg/mL
- MIC, storage temperature 21 °C [2]: 0.125 µg/mL
- MIC, storage temperature 37 °C [2]: 32 µg/mL
- MIC, storage temperature -20 °C [2]: 0.063 µg/mL
- MIC, repeat freeze–thaw [2]: 0.063 µg/mL
- MIC, Initial [3]: 0.125 µg/mL
- MIC, storage temperature 4 °C [3]: 0.125 µg/mL
- MIC, storage temperature 21 °C [3]: 0.5 µg/mL
- MIC, storage temperature 37 °C [3]: > 128 µg/mL
- MIC, storage temperature -20 °C [3]: 0.063 µg/mL
- MIC, repeat freeze–thaw [3]: 0.25 µg/mL
- change of GPC elution profile after storage [4]: largely unchanged
- change of antimicrobial activity (MIC) after storage [5]: unaffected

Compound: Colistimethate sodium [CMS]
- MIC, Initial [1]: 0.125 µg/mL
- MIC, storage temperature 4 °C [1]: 0.063 µg/mL
- MIC, storage temperature 21 °C [1]: 0.063 µg/mL
- MIC, storage temperature 37 °C [1]: 8 µg/mL
- MIC, storage temperature -20 °C [1]: 0.031 µg/mL
- MIC, repeat freeze–thaw [1]: 0.031 µg/mL
- MIC, Initial [2]: 0.5 µg/mL
- MIC, storage temperature 4 °C [2]: 0.125 µg/mL
- MIC, storage temperature 21 °C [2]: 0.25 µg/mL
- MIC, storage temperature 37 °C [2]: 64 µg/mL
- MIC, storage temperature -20 °C [2]: 0.25 µg/mL
- MIC, repeat freeze–thaw [2]: 0.125 µg/mL
- MIC, Initial [3]: 2 µg/mL
- MIC, storage temperature 4 °C [3]: 1 µg/mL
- MIC, storage temperature 21 °C [3]: 1 µg/mL
- MIC, storage temperature 37 °C [3]: 128 µg/mL
- MIC, storage temperature -20 °C [3]: 1 µg/mL
- MIC, repeat freeze–thaw [3]: 0.5 µg/mL
- change of GPC elution profile after storage [4]: Significant changes in the elution profile
- change of antimicrobial activity (MIC) after storage [5]: unaffected
